{
  "source": "ChEMBL document CHEMBL4354832",
  "about": "“Discovery of a Covalent Inhibitor of KRASG12C (AMG 510) for the Treatment of Solid Tumors” (J Med Chem, 2020)",
  "key": {"[1]": {"experiment": "Tmin in plasma of athymic nude mouse xenografted with human MIAPaCa2 cells at > 10 mg/kg, po administered as single dose", "type": "ADME, organism-based", "conditions": "in vivo"}, "[2]": {"experiment": "Half life in Sprague-Dawley rat at 1 mg/kg, iv or 10 mg/kg, po", "type": "ADME, organism-based", "conditions": "in vivo"}, "[3]": {"test_system": "MIA PaCa-2", "experiment": "Antiproliferative activity against human MIAPaCa2 cells harboring KRAS G12C point mutant assessed as cell growth inhibition after 72 hrs by Celltiter-Glo luminescent cell viability assay", "type": "functional, cell-based", "conditions": "MIA PaCa-2, 72 h"}, "[4]": {"experiment": "Permeability of compound across apical to basolateral membrane in MDCK2 cells at 10 to 50 uM incubated for 2 hrs under shaking condition by LC-MS/MS analysis", "type": "ADME, cell-based, Canis lupus familiaris, MDCK-II", "conditions": "dog, MDCK; read-out: permeability"}, "[5]": {"experiment": "Clearance in BALB/c mouse at 1 mg/kg, iv or 10 mg/kg, po", "type": "ADME, organism-based", "conditions": "in vivo"}, "[6]": {"experiment": "Intrinsic clearance in mouse cryopreserved hepatocytes assessed per 10^6 cells at 0.5 uM measured upto 60 mins by LCMS analysis", "type": "ADME, cell-based, Hepatocyte", "conditions": "read-out: CLH"}, "[7]": {"test_system": "Mus musculus", "experiment": "Decrease in ERK1/ERK2 phosphorylation in human MIAPaCa2 cells xenografted in athymic nude mouse at > 10 mg/kg, po administered as single dose measured after 60 to 120 mins post-treatment", "type": "functional, organism-based"}, "[8]": {"experiment": "Solubility of compound in PBS buffer at pH 7.4 incubated for 48 to 72 hrs under shaking conditions by LCMS analysis", "type": "physicochemical"}, "[9]": {"experiment": "Time taken to achieve Cmax in plasma of athymic nude mouse xenografted with human MIAPaCa2 cells at > 10 mg/kg, po administered as single dose", "type": "ADME, organism-based", "conditions": "read-out: tCmax (converted)"}, "[10]": {"experiment": "Oral bioavailability in BALB/c mouse at 10 mg/kg", "type": "ADME, organism-based", "conditions": "in vivo"}, "[11]": {"experiment": "Solubility of compound in 0.01N HCl at pH 2 incubated for 48 to 72 hrs under shaking conditions by LCMS analysis", "type": "physicochemical"}, "[12]": {"experiment": "Protein binding in plasma of Sprague-Dawley rat assessed as unbound fraction at […] by ultracentrifugation", "type": "ADME, cell-free"}, "[13]": {"experiment": "Oral bioavailability in Beagle dog at 10 mg/kg", "type": "ADME, organism-based, Canis lupus familiaris", "conditions": "in vivo"}, "[14]": {"experiment": "Volume of distribution at steady state in Beagle dog at 1 mg/kg, iv or 10 mg/kg, po", "type": "ADME, organism-based, Canis lupus familiaris", "conditions": "in vivo, read-out: Vdss"}, "[15]": {"experiment": "Protein binding in plasma of human assessed as unbound fraction at […] by ultracentrifugation", "type": "ADME, cell-free"}, "[16]": {"test_system": "MIA PaCa-2", "experiment": "Antitumor activity against human MIAPaCa2 cells harboring KRAS G12C point mutant xenografted in athymic nude mouse assessed as tumor regression at >= 30 mg/kg, po qd measured after 26 days", "type": "functional, organism-based"}, "[17]": {"experiment": "Solubility of compound in FaSSIF incubated for 48 to 72 hrs under shaking conditions by LCMS analysis", "type": "physicochemical"}, "[18]": {"experiment": "Volume of distribution at steady state in BALB/c mouse at 1 mg/kg, iv or 10 mg/kg, po", "type": "ADME, organism-based", "conditions": "in vivo, read-out: Vdss"}, "[19]": {"experiment": "Oral bioavailability in Sprague-Dawley rat at 10 mg/kg", "type": "ADME, organism-based", "conditions": "in vivo"}, "[20]": {"experiment": "Intrinsic clearance in human cryopreserved hepatocytes assessed per 10^6 cells at 0.5 uM measured upto 60 mins by LCMS analysis", "type": "ADME, cell-based, Hepatocyte", "conditions": "read-out: CLH"}, "[21]": {"experiment": "Protein binding in plasma of Beagle dog assessed as unbound fraction at […] by ultracentrifugation", "type": "ADME, cell-free, Canis lupus familiaris"}, "[22]": {"experiment": "Half life of compound in aqueous phosphate buffer at pH 7.4 and at 37 degree C in presence of 5 mM GSH", "type": "physicochemical", "conditions": "aqueous phosphate buffer with 5 mM GSH"}, "[23]": {"experiment": "Clearance in Sprague-Dawley rat at 1 mg/kg, iv or 10 mg/kg, po", "type": "ADME, organism-based", "conditions": "in vivo"}, "[24]": {"experiment": "Unbound plasma concentration in athymic nude mouse xenografted with human MIAPaCa2 cells at 10 mg/kg, po qd after 8 hrs post-last dose", "type": "ADME, organism-based", "conditions": "in vivo"}, "[25]": {"experiment": "Protein binding in plasma of BALB/c mouse assessed as unbound fraction at […] by ultracentrifugation", "type": "ADME"}, "[26]": {"test_system": "MIA PaCa-2", "experiment": "Antitumor activity against human MIAPaCa2 cells harboring KRAS G12C point mutant xenografted in athymic nude mouse assessed as tumor regression at 100 mg/kg, po qd measured after 26 days relative to control", "type": "functional"}, "[27]": {"test_system": "MIA PaCa-2", "experiment": "Antitumor activity against human MIAPaCa2 cells harboring KRAS G12C point mutant xenografted in athymic nude mouse assessed as tumor regression at 30 mg/kg, po qd measured after 26 days relative to control", "type": "functional"}, "[28]": {"experiment": "Volume of distribution at steady state in Sprague-Dawley rat at 1 mg/kg, iv or 10 mg/kg, po", "type": "ADME, organism-based", "conditions": "in vivo, read-out: Vdss"}, "[29]": {"experiment": "Time taken to achieve Cmax in tumor of athymic nude mouse xenografted with human MIAPaCa2 cells at > 10 mg/kg, po administered as single dose", "type": "ADME, organism-based, Neoplasm", "conditions": "read-out: tCmax (converted)"}, "[30]": {"experiment": "Half life in Beagle dog at 1 mg/kg, iv or 10 mg/kg, po", "type": "ADME, organism-based, Canis lupus familiaris", "conditions": "in vivo"}, "[31]": {"experiment": "Clearance in Beagle dog at 1 mg/kg, iv or 10 mg/kg, po", "type": "ADME, organism-based, Canis lupus familiaris", "conditions": "in vivo"}, "[32]": {"experiment": "Half life in BALB/c mouse at 1 mg/kg, iv or 10 mg/kg, po", "type": "ADME, organism-based", "conditions": "in vivo"}, "[33]": {"test_system": "MIA PaCa-2", "experiment": "Antitumor activity against human MIAPaCa2 cells harboring KRAS G12C point mutant xenografted in athymic nude mouse assessed as tumor growth inhibition at 10 mg/kg, po qd measured after 26 days relative to control", "type": "functional"}, "[34]": {"test_system": "A549", "experiment": "Antiproliferative activity against human A549 cells harboring KRAS G12S point mutant assessed as cell growth inhibition after 72 hrs by Celltiter-Glo luminescent cell viability assay", "type": "functional, cell-based", "conditions": "A549, 72 h"}},
  "note": "Active and inactive are the calls of the source. No cut-off for these calls is given here.",
  "data": [
    {"smiles": "C=CC(=O)N1CCN(c2nc(=O)n(-c3c(C)ccnc3C(C)C)c3nc(-c4c(O)cccc4F)c(F)cc23)[C@@H](C)C1", "note": "[SOTORASIB]", "values": [
      {"measurement": "Tmin", "setting": "[1]", "value": 120, "unit": "min"},
      {"measurement": "half-life", "setting": "[2]", "value": 30, "unit": "min"},
      {"measurement": "IC50", "setting": "[3]", "value": 0.005, "unit": "µM"},
      {"measurement": "Papp A→B at 2 h, up to 50 µM", "setting": "[4]", "value": 6, "unit": "×10⁻⁶ cm/s"},
      {"measurement": "clearance", "setting": "[5]", "value": 26.7, "unit": "mL/min/kg"},
      {"measurement": "hepatocyte CLint at 0.5 µM", "setting": "[6]", "value": 36, "unit": "µL/min/1e6 cells"},
      {"measurement": "inhibition", "setting": "[7]", "value": "Active"},
      {"measurement": "solubility thermodynamic", "setting": "[8]", "value": 423, "unit": "µM"},
      {"measurement": "Tmax", "setting": "[9]", "value": 30, "unit": "min"},
      {"measurement": "bioavailability", "setting": "[10]", "value": "22 to 40", "unit": "%"},
      {"measurement": "solubility thermodynamic", "setting": "[11]", "value": 499, "unit": "µM"},
      {"measurement": "fraction unbound at […]", "setting": "[12]", "value": 0.05},
      {"measurement": "bioavailability", "setting": "[13]", "value": 0.34, "unit": "%"},
      {"measurement": "Vd", "setting": "[14]", "value": 0.73, "unit": "L/kg"},
      {"measurement": "fraction unbound at […]", "setting": "[15]", "value": 0.09},
      {"measurement": "inhibition", "setting": "[16]", "value": "Active"},
      {"measurement": "solubility thermodynamic", "setting": "[17]", "value": 492, "unit": "µM"},
      {"measurement": "Vd", "setting": "[18]", "value": 0.7, "unit": "L/kg"},
      {"measurement": "bioavailability", "setting": "[19]", "value": 2.8, "unit": "%"},
      {"measurement": "hepatocyte CLint at 0.5 µM", "setting": "[20]", "value": 9, "unit": "µL/min/1e6 cells"},
      {"measurement": "fraction unbound at […]", "setting": "[21]", "value": 0.17},
      {"measurement": "half-life", "setting": "[22]", "value": 200, "unit": "min"},
      {"measurement": "clearance", "setting": "[23]", "value": 56.7, "unit": "mL/min/kg"},
      {"measurement": "Cp(f)", "setting": "[24]", "value": "< 1", "unit": "nM"},
      {"measurement": "fraction unbound at […]", "setting": "[25]", "value": 0.06},
      {"measurement": "inhibition (INH)", "setting": "[26]", "value": 62, "unit": "%"},
      {"measurement": "inhibition (INH)", "setting": "[27]", "value": 34, "unit": "%"},
      {"measurement": "Vd", "setting": "[28]", "value": 2, "unit": "L/kg"},
      {"measurement": "Tmax", "setting": "[29]", "value": 30, "unit": "min"},
      {"measurement": "half-life", "setting": "[30]", "value": 24, "unit": "min"},
      {"measurement": "clearance", "setting": "[31]", "value": 36.7, "unit": "mL/min/kg"},
      {"measurement": "half-life", "setting": "[32]", "value": 30, "unit": "min"},
      {"measurement": "TGI", "setting": "[33]", "value": 86, "unit": "%"},
      {"measurement": "IC50", "setting": "[34]", "value": 36.5, "unit": "µM"}
    ]}
  ]
}
